Laboratory results taken from patent US20070021501A1, “Methods of treating epileptogenesis” (priority 2005, published 2007).
Values joined by “and” are separate entries in the source; they are usually repeats but may differ in a detail not shown here. Identical values can stand only once.

Tests used:
[1] = tested on: lithium-pilocarpine model of temporal lobe epilepsy in the rat; assay: Quantification of cell densities in hippocampus, thalamus and cortex after Li-pilo SE (Example 1); assay type: in vivo; conditions: for more damage (worsening of cell loss) compared with pilo-DZP rats: TC 10 mg/kg; for damage compared to saline-saline rats / cell loss compared to saline-saline rats: DZP
Protocol: Quantification of cell densities was performed at 6 days after SE on 8 pilo-DZP, 8 pilo-TC10, 7 pilo-TC30, 7 pilo-TC60, and 6 saline-saline rats.
Cell counts were performed twice in a blind manner and were the average of at least 3 values from 2 adjacent sections in each individual animal. Counts involved only cells larger than 10 μm, smaller ones being considered as glial cells.
For the comparison of the characteristics of SE in pilo-saline and pilo-test compound animals, a non-paired Student's t-test was used. The comparison between the number of rats seizing in both groups was performed by means of a Chi square test. For neuronal damage, statistical analysis between groups was performed using ANOVA followed by a Fisher's test for multiple comparisons using the Statview software (Fisher R A, 1946a, Statistical Methods for Research Workers (10th edition) Oliver & Boyd, Edinburgh; Fisher R A, 1946b, The Design of Experiments (4th edition) Oliver & Boyd, Edinburgh) Behavioral and EEG Characteristics of Lithium-pilocarpine Status Epilepticus

[2] = tested on: lithium-pilocarpine model of temporal lobe epilepsy in the rat; assay: Mossy fiber sprouting in hippocampus, Timm staining (Example 1); assay type: in vivo
Protocol: At 2 months after the onset of spontaneous recurrent seizures, mossy fiber sprouting was examined on rats in the chronic period exposed to the test compound or DZP and in 3 saline-saline rats. Animals were deeply anaesthetized and perfused transcardially with saline followed by 100 ml of 1.15% (w/v) Na2S in 0.1 M phosphate buffer, and 100 ml of 4% (v/v) formaldehyde in 0.1 M phosphate buffer. Brains were removed from skull, post-fixed in 4% formaldehyde during 3-5 h and 40 μm sections were cut on a sliding vibratome and mounted on gelatin-coated slides.
The following day, sections were developed in the dark in a 26° C. solution of 50% (w/v) arabic gum (160 ml), sodium citrate buffer (30 ml), 5.7% (w/v) hydroquinone (80 ml) and 10% (w/v) silver nitrate (2.5 ml) during 40-45 min. The sections were then rinsed with tap water at 40° C. during at least 45 min, rinsed rapidly with distilled water and allowed to dry. They were dehydrated in ethanol and coverslipped.
Mossy fiber sprouting was evaluated according to criteria previously described in dorsal hippocampus (Cavazos et al., 1991, J Neurosci 11:2795-2803.), which are follows: 0—no granules between the tips and crest of the DG; 1—sparse granules in the supragranular region in a patchy distribution between the tips and crest of DG; 2—more numerous granules in a continuous distribution between the tips and crest of DG; 3—prominent granules in a continuous pattern between tips and crest, with occasional patches of confluent granules between tips and crest; 4—prominent granules that form a confluent dense laminar band between tips and crest and 5—confluent dense laminar band of granules that extends into the inner molecular layer.

[3] = tested on: lithium-pilocarpine status epilepticus in the rat; assay: Mortality induced by SE, lithium-pilocarpine model (Example 1); assay type: in vivo
Excerpt: The model induced in rats by pilocarpine associated with lithium (Li-Pilo) reproduces most of the clinical and neurophysiological features of human temporal lobe epilepsy (Turski et al., 1989, Synapse 3:154-171; Cavalheiro, 1995, Ital J Neurol Sci 16:33-37). In adult rats, the systemic administration of pilocarpine leads to status epilepticus (SE). The lethality rate reaches 30-50% during the first days. In the surviving animals, neuronal damage predominates within the hippocampal formation, the piriform and entorhinal cortices, thalamus, amygdaloid complex, neocortex and substantia nigra.
Male Wistar rats weighing 225-250 g, provided by Janvier Breeding Center (Le Genest-St-lste, France) were housed under controlled standard conditions (light/dark cycle, 7.00 a.m.-7.00 p.m. lights on), with food and water available ad libitum. All animal experimentation was performed in accordance with the rules of the European Communities Council Directive of Nov. 24, 1986 (86/609/EEC), and the French Department of Agriculture (License N^o 67-97). For electrode implantation, rats were anesthetized by an i.p. injection of 2.5 mg/kg diazepam (DZP, Valium, Roche, France) and […] ketamine chlorhydrate (Imalgene 1000, Rhone Merrieux, France). Four single-contact recording electrodes were placed on the skull, over the parietal cortex, two on each side.
The bilateral EEG cortical activity was recorded during the whole duration of SE and behavioral changes were noted.
The effects of increasing doses of the test compound were studied on 3 groups of rats. The animals of the first group received 10 mg/kg of the test compound, i.p., 1 h after the onset of SE (pilo-TC10) while the animals of groups 2 and 3 received 30 and 60 mg/kg of the test compound (pilo-TC30 and pilo-TC60), respectively.
The control group received saline instead of pilocarpine and the test compound (saline-saline). […] Pilo-DZP received a second injection of 1 mg/kg DZP on the day of SE at about 10 h after the first one. Thereafter, Pilo-DZP and saline-saline rats received twice daily an equivalent volume of saline.

[4] = tested on: lithium-pilocarpine status epilepticus in the rat; assay: Mortality over the first 48 h after Li-pilo SE (Example 2); assay type: in vivo, Sprague-Dawley rats
Protocol: Adult male Sprague-Dawley rats provided by Janvier Breeding Center (Le Genest-St-lsle, France) were housed under controlled, uncrowded standard conditions at 20-22° C. (light/dark cycle, 7.00 a.m.-7.00 p.m. lights on), with food and water available ad libitum. All animal experimentation was performed in accordance with the rules of the European Communities Council Directive of Nov. 24, 1986 (86/609/EEC), and the French Department of Agriculture (License N^o 67-97).

[5] = tested on: lithium-pilocarpine model of temporal lobe epilepsy in the rat; assay: Latency to and frequency of spontaneous seizures, video recording (Example 2); assay type: in vivo, Sprague-Dawley rats
Protocol: The effects of DZP and the 4 doses of TC on epileptogenesis were investigated by daily video recording of the animals for 10 h per day. Video recording was performed for 4 weeks during which the occurrence of the first seizure was noted as well as the total number of seizures over the whole period. Animals were then taken off the video recording system and kept for 4 additional weeks in our animal facilities before they were sacrificed after a total period of 8 weeks of epilepsy.

[6] = dorsal entorhinal cortex layers III-IV
[7] = ventral entorhinal cortex layers III-IV

NC(=O)OC[C@@H](O)c1ccccc1Cl [TC]
more damage (worsening of cell loss) compared with pilo-DZP rats [1, 6]: 28% | more damage (worsening of cell loss) compared with pilo-DZP rats [1, 7]: 35% | cell loss ([1]; TC 30 mg/kg, hippocampus CA1 pyramidal layer): 35% | cell loss ([1]; TC 60 mg/kg, hippocampus CA1 pyramidal layer): 16% | reduction of neuronal damage recorded in the pilo-DZP rats ([1]; TC 60 mg/kg, piriform cortex layer II): 41% | reduction of neuronal damage recorded in the pilo-DZP rats ([1]; TC 60 mg/kg, piriform cortex layers III-IV): 44% | neuroprotection compared to pilo-DZP rats ([1]; TC 60 mg/kg, ventral entorhinal cortex layers III-IV): 31% | cell loss ([1]; pilo-test compound animals (range over doses), hilus of dentate gyrus): 69-72% | protection compared to pilo-DZP rats ([1]; test compound 60 mg/kg, CA3b): significantly neuroprotective | protection compared to pilo-DZP rats ([1]; test compound, CA3a area): did not afford any protection | mean Timm score in the upper blade of the dentate gyrus ([2]; TC 10 mg/kg (n=7)): 1.5±0.6 | mean Timm score in the upper blade of the dentate gyrus ([2]; TC 30 mg/kg (n=10)): 2.6±1.0 | mean Timm score in the upper blade of the dentate gyrus ([2]; TC 60 mg/kg, whole group (n =11)): 1.5±0.7 | mortality during the first 48 h after SE ([3]; TC 10 mg/kg i.p. 1 h after onset of SE (6/23)): 26% | mortality during the first 48 h after SE ([3]; TC 30 mg/kg i.p. 1 h after onset of SE (5/25)): 20% | mortality during the first 48 h after SE ([3]; TC 60 mg/kg i.p. 1 h after onset of SE (1/23), p<0.01): 4% | mortality over the first 48 h after SE ([4]; TC 30 mg/kg, group devoted to cell counting at 14 days (4/12)): 33% | mortality over the first 48 h after SE ([4]; TC 30 mg/kg, group devoted to latency to SRS and late cell counting (3/11)): 27% | mortality over the first 48 h after SE ([4]; TC 60 mg/kg, group devoted to cell counting at 14 days (1/12)): 8% | mortality over the first 48 h after SE ([4]; TC 60 mg/kg, group devoted to latency to SRS and late cell counting (0/10)): 0% | mortality over the first 48 h after SE ([4]; TC 90 mg/kg, group devoted to cell counting at 14 days (0/10)): 0% | mortality over the first 48 h after SE ([4]; TC 90 mg/kg, group devoted to latency to SRS and late cell counting (0/11)): 0% | mortality over the first 48 h after SE ([4]; TC 120 mg/kg, group devoted to cell counting at 14 days (4/12)): 33% | mortality over the first 48 h after SE ([4]; TC 120 mg/kg, group devoted to latency to SRS and late cell counting (0/9)): 0% | frequency of spontaneous seizures over the four weeks of recording ([5]; TC 30 mg/kg): tendency to be higher | percentage of rats with short latencies to seizures (shorter than 40 days after SE) ([5]; TC 90 mg/kg (4/11)): 36% | percentage of non-epileptic rats (no seizure over 150 days post-SE) ([5]; TC 120 mg/kg): 45% | percentage of rats with short latencies to seizures (shorter than 40 days after SE) ([5]; TC 120 mg/kg (1/9)): 11% | frequency of spontaneous seizures over the four weeks of recording ([5]; TC60, 90 and 120 groups): lower

CN1C(=O)CN=C(c2ccccc2)c2cc(Cl)ccc21 [DZP, diazepam]
damage compared to saline-saline rats ([1]; dentate gyrus granule cell layer): did not show visible damage | damage compared to saline-saline rats ([1]; dorsal entorhinal cortex layer II): 9% | damage compared to saline-saline rats [1, 6]: 15% | cell loss compared to saline-saline rats ([1]; hilus of dentate gyrus): 73% | cell loss compared to saline-saline rats ([1]; hippocampus CA1 pyramidal cell layer): 70% and 75% | cell loss compared to saline-saline rats ([1]; hippocampus CA3a): 54% | cell loss compared to saline-saline rats ([1]; hippocampus CA3b): 31% | cell loss compared to saline-saline rats ([1]; lateral thalamic nucleus): 91% | cell loss compared to saline-saline rats ([1]; mediodorsal thalamic nucleus): 56% | cell loss compared to saline-saline rats ([1]; piriform cortex layer II): 53% | cell loss compared to saline-saline rats ([1]; piriform cortex layers III-IV): total | damage compared to saline-saline rats ([1]; ventral entorhinal cortex layer II): totally preserved | cell loss compared to saline-saline rats [1, 7]: 44% | mean Timm score in the upper blade of the dentate gyrus ([2]; DZP (n=9)): 2.8±0.8 | mortality during the first 48 h after SE ([3]; DZP 2 mg/kg i.m. 1 h after onset of SE (5/22)): 23% | mortality over the first 48 h after SE ([4]; DZP 2.5 mg/kg i.m., group devoted to cell counting at 14 days (4/11)): 36% | mortality over the first 48 h after SE ([4]; DZP 2.5 mg/kg i.m., group devoted to latency to SRS and late cell counting (1/14)): 7% | frequency of spontaneous seizures over the four weeks of recording ([5]; DZP 2.5 mg/kg i.m.): tendency to be higher
